assay: method code SF-AS, from DOI: 10.1016/0014-5793(90)81139-f, PMID: 2387393; conditions: pH 2.0

Row | logD | Compound
1 | 1.26 | COC1=C(OC)C(=O)C(C)=C(C)C1=O
2 | 1.02 | COc1c(O)cc(C)c(O)c1OC
3 | 1.69 | Cc1cc(O)c(C)c(C)c1O
4 | 1.21 | CC1=CC(=O)C=C(Br)C1=O
5 | 0.27 | COC1=CC(=O)C=CC1=O
6 | 0.17 | COc1cc(O)cc(OC)c1O

Continued, molecule first:

Row | Compound | logD
7 | COc1cc(O)ccc1O | 0.47
8 | COc1c(O)c(C)c(C)c(O)c1OC | 1.6
9 | CC1=CC(=O)C=CC1=O | 0.67
10 | COc1c(O)c(OC)c(OC)c(O)c1OC | 0.39
11 | COC1=CC(=O)C=C(OC)C1=O | -0.05
12 | Cc1cc(O)cc(Br)c1O | 1.38

— the SangsterLogP compilation
